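Protocol summary: plate cells (96-well), add compound at 5 concentrations, incubate 48 h, interpolate endpoints linearly. The concentration for 50% growth inhibition is given as GI50.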 Calls of active or inactive are those of the source. Rule as the data show it: active = GI50 up to about 1.1 µM and inactive = higher.
Legend:
Test in all cases: growth of human tumour cells (NCI), 48 h
SK-MEL-2 = test system: SK-MEL-2
HCC 2998 = test system: HCC 2998
CAKI-1 = test system: CAKI-1
HOP-92 = test system: HOP-92
RPMI-8226 = test system: RPMI-8226
M14 = test system: M14
PC-3 = test system: PC-3
NCI-H460 = test system: NCI-H460
UO-31 = test system: UO-31
LOX IMVI = test system: LOX IMVI
SF-295 = test system: SF-295
ACHN = test system: ACHN
MCF7 = test system: MCF7
OVCAR-5 = test system: OVCAR-5
HT-29 = test system: HT-29
CCRF-CEM = test system: CCRF-CEM
SK-OV-3 = test system: SK-OV-3
T47D = test system: T47D
SK-MEL-5 = test system: SK-MEL-5

Row | Structure (SMILES) | GI50 (SK-MEL-2) | GI50 (HCC 2998) | GI50 (CAKI-1) | GI50 (HOP-92) | GI50 (RPMI-8226) | GI50 (M14) | GI50 (PC-3) | GI50 (NCI-H460) | GI50 (UO-31) | GI50 (LOX IMVI) | GI50 (SF-295) | GI50 (ACHN) | GI50 (MCF7) | GI50 (OVCAR-5) | GI50 (HT-29) | GI50 (CCRF-CEM) | GI50 (SK-OV-3) | GI50 (T47D) | GI50 (SK-MEL-5)
1 | Nc1ccc2ccc(N3CCNCC3)nc2n1 | 35.1 µM (inactive) | 44.2 µM (inactive) | > 100 µM (inactive) | 46 µM (inactive) | 84.3 µM (inactive) | 55.1 µM (inactive) | 44.7 µM (inactive) | 44 µM (inactive) | 50.4 µM (inactive) | > 100 µM (inactive) | 39.9 µM (inactive) | 74.8 µM (inactive) | 70 µM (inactive) | 32.4 µM (inactive) | 33.7 µM (inactive) | 31.6 µM (inactive) | 83.9 µM (inactive) | – | –
2 | COc1ccc(-c2cc(=O)c3c(OC)c(OC)c(OC)c(OC)c3o2)cc1OC [NOBILETIN] | 49.4 µM (inactive) | 32.7 µM (inactive) | 29.4 µM (inactive) | 18.3 µM (inactive) | 39.8 µM (inactive) | 55.8 µM (inactive) | – | 52.8 µM (inactive) | 24.7 µM (inactive) | 30.1 µM (inactive) | 32.5 µM (inactive) | 37.3 µM (inactive) | 4.86 µM (inactive) | > 100 µM (inactive) | 32.1 µM (inactive) | 65.6 µM (inactive) | 61.7 µM (inactive) | 19.5 µM (inactive) | 18.6 µM (inactive)
3 | S=C1CCSc2c(ccc3ccccc23)N1 | – | – | > 100 µM (inactive) | – | – | > 100 µM (inactive) | 41 µM (inactive) | 71.8 µM (inactive) | > 100 µM (inactive) | > 100 µM (inactive) | 45.8 µM (inactive) | > 100 µM (inactive) | 72.4 µM (inactive) | > 100 µM (inactive) | > 100 µM (inactive) | > 100 µM (inactive) | 83.9 µM (inactive) | 70.5 µM (inactive) | > 100 µM (inactive)
4 | CN1C(=O)C(C(=O)Nc2ccccn2)C2C[C@@]1(C)Oc1ccccc12 (stereo partly specified) | > 100 µM (inactive) | > 100 µM (inactive) | > 100 µM (inactive) | > 100 µM (inactive) | 56.1 µM (inactive) | > 100 µM (inactive) | > 100 µM (inactive) | > 100 µM (inactive) | > 100 µM (inactive) | > 100 µM (inactive) | > 100 µM (inactive) | 0.861 µM (active) | – | > 100 µM (inactive) | > 100 µM (inactive) | > 100 µM (inactive) | > 100 µM (inactive) | – | > 100 µM (inactive)
5 | CN1CN(c2ccccc2)C2(CCN(CCCSc3ccccc3NC(=O)/C=C/c3ccccc3)CC2)C1=O | 2.58 µM (inactive) | 4.84 µM (inactive) | 9.91 µM (inactive) | – | 1.89 µM (inactive) | 1.71 µM (inactive) | 5.45 µM (inactive) | 4.05 µM (inactive) | 2.99 µM (inactive) | 2.25 µM (inactive) | 3.3 µM (inactive) | 2.4 µM (inactive) | 13 µM (inactive) | 22.6 µM (inactive) | 2.29 µM (inactive) | 2.93 µM (inactive) | 5.92 µM (inactive) | 4.01 µM (inactive) | 3.55 µM (inactive)
6 | Cn1c2ccccc2c2cc(N3CCCC3)c3c(c21)C(=O)N(c1ccccc1)C3=O | – | > 100 µM (inactive) | – | – | > 100 µM (inactive) | > 100 µM (inactive) | > 100 µM (inactive) | > 100 µM (inactive) | > 100 µM (inactive) | > 100 µM (inactive) | > 100 µM (inactive) | > 100 µM (inactive) | 24.3 µM (inactive) | > 100 µM (inactive) | > 100 µM (inactive) | > 100 µM (inactive) | 58.9 µM (inactive) | 62.1 µM (inactive) | > 100 µM (inactive)
7 | C(CCCCc1nnc(N2CCCCC2)o1)CCCc1nnc(N2CCCCC2)o1 | > 100 µM (inactive) | > 100 µM (inactive) | > 100 µM (inactive) | > 100 µM (inactive) | – | > 100 µM (inactive) | > 100 µM (inactive) | > 100 µM (inactive) | > 100 µM (inactive) | > 100 µM (inactive) | > 100 µM (inactive) | > 100 µM (inactive) | > 100 µM (inactive) | > 100 µM (inactive) | > 100 µM (inactive) | > 100 µM (inactive) | > 100 µM (inactive) | – | > 100 µM (inactive)
8 | CC(CO)C1=CC(C#CCOCc2ccccc2)N(C(=O)Oc2ccccc2)c2ccccc21 (stereo unspecified) | 23.3 µM (inactive) | 25.5 µM (inactive) | 18.7 µM (inactive) | 7.69 µM (inactive) | 13.1 µM (inactive) | 17.1 µM (inactive) | 14.4 µM (inactive) | 18 µM (inactive) | 26.4 µM (inactive) | 33.5 µM (inactive) | 7.24 µM (inactive) | 6.9 µM (inactive) | – | 64.1 µM (inactive) | 18.6 µM (inactive) | 15 µM (inactive) | 34.9 µM (inactive) | 3.76 µM (inactive) | 21.4 µM (inactive)
